From US7271253B1, “Safe process for the preparation of balsalazide” (Apotex Pharmachem Inc., priority 2006, dated 2007)

What was measured:
[1] = Solubility in water of N-(4-aminobenzoyl)-β-alanine salts; format: physicochemical
From the text: According to one aspect of the invention, a more soluble salt of N-(4-aminobenzoyl)-β-alanine is provided which overcomes the use of the previous forms which were virtually insoluble in water.
(for example as depicted in FIG. 1). This latter temperature was selected as it provided for optimal reaction.
The preferred concentration of the aqueous sulfonic acid solution was about 4% to about 14%, more preferably about 7% to about 12%, and most preferably about 9%. The fact that higher concentrations were preferred, despite the decreased solubility of the salt, was a consequence of the fact that operationally, the use of about 9% sulfonic acid concentrations permitted proportionally lower reaction volumes, without compromising safety, and was advantageous for commercial scale-up.
FIG. 3—A comparison of the relative solubility of mesylate in differing concentrations of aqueous methanesulfonic acid.

[2] = DSC, FIG. 2
[3] = RSST, different reaction temperatures, FIG. 1
From the text: The decomposition of the intermediate was indicated by the pressure increase.
FIG. 1—Plot showing the rate of decomposition of diazonium mesylate at different temperatures. Increased pressure is indicative of the decomposition of the mesylate to form nitrogen gas.

Nc1ccc(C(=O)NCCC(=O)O)cc1 [chloride, N-(4-aminobenzoyl)-β-alanine]
solubility in water [1]: poorly soluble | solubility in water ([1]; listed as hydrochloride salt of 4-aminobenzoyl-β-alanine): poor solubility

CS(=O)(=O)[O-].N#[N+]c1ccc(C(=O)NCCC(=O)O)cc1 [diazonium mesylate, N-(4-diazoniumbenzoyl)-β-alanine sulfonate salt]
decomposition energy of solid relative to solution [2]: almost ten-fold higher | temperature at which decomposition may start [3]: 25 °C

CS(=O)(=O)O.Nc1ccc(C(=O)NCCC(=O)O)cc1 [methanesulfonic acid salt, N-(4-ammoniumbenzoyl)-β-alanine sulfonate salt]
solubility in water [1]: unexpectedly high water solubility

Nc1ccc(C(=O)NCCC(=O)O)cc1 [free-base, N-(4-aminobenzoyl)-β-alanine]
solubility at higher concentrations of sulfonic acid ([1]; differing concentrations of aqueous methanesulfonic acid, FIG. 3): decrease in the solubility
